Data reported in PubChem BioAssay (NCI).
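Results reflect a 48-hour exposure of cells in 96-well plates to compound at five concentrations. TGI is the concentration that stops growth completely.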

Key:
Assay in all cases: NCI-60 cell line screen, 48 h
NCI-H460 lung = test system: NCI-H460 lung
RPMI-8226 leukemia = test system: RPMI-8226 leukemia
SR leukemia = test system: SR leukemia
MCF7 breast = test system: MCF7 breast
OVCAR-3 ovarian = test system: OVCAR-3 ovarian
SK-MEL-28 melanoma = test system: SK-MEL-28 melanoma
KM12 colon = test system: KM12 colon
UACC-257 melanoma = test system: UACC-257 melanoma
DU-145 prostate = test system: DU-145 prostate
PC-3 prostate = test system: PC-3 prostate
MALME-3M melanoma = test system: MALME-3M melanoma
NCI-H23 lung = test system: NCI-H23 lung
EKVX NSCLC = test system: EKVX NSCLC
HCT-15 colon = test system: HCT-15 colon
UO-31 renal = test system: UO-31 renal
SK-MEL-5 melanoma = test system: SK-MEL-5 melanoma
MDA-MB-231 breast = test system: MDA-MB-231 breast
HCC-2998 colon = test system: HCC-2998 colon
MDA-N = test system: MDA-N
OVCAR-8 ovarian = test system: OVCAR-8 ovarian

Compound	TGI (NCI-H460 lung)	TGI (RPMI-8226 leukemia)	TGI (SR leukemia)	TGI (MCF7 breast)	TGI (OVCAR-3 ovarian)	TGI (SK-MEL-28 melanoma)	TGI (KM12 colon)	TGI (UACC-257 melanoma)	TGI (DU-145 prostate)	TGI (PC-3 prostate)	TGI (MALME-3M melanoma)	TGI (NCI-H23 lung)	TGI (EKVX NSCLC)	TGI (HCT-15 colon)	TGI (UO-31 renal)	TGI (SK-MEL-5 melanoma)	TGI (MDA-MB-231 breast)	TGI (HCC-2998 colon)	TGI (MDA-N)	TGI (OVCAR-8 ovarian)
CC(C)Cc1cc2c(cc1O)CCC1C2CC[C@@]2(C)C1CC[C@@H]2O (stereo not given in full)	25.5 µM	20.4 µM	19.8 µM	25.9 µM	16.6 µM	28.8 µM	17.4 µM	35.1 µM	23.1 µM	21 µM	37 µM	26.4 µM	26.3 µM	21.7 µM	13.4 µM	20.3 µM	20 µM	36.1 µM	19.7 µM	22.3 µM
O=C(CCCl)NNC1=NCCCN1	> 100 µM	> 100 µM	> 100 µM	> 100 µM	> 100 µM	> 100 µM	> 100 µM	> 100 µM	> 100 µM	> 100 µM	> 100 µM	> 100 µM	> 100 µM	> 100 µM	> 100 µM	> 100 µM	> 100 µM	> 100 µM	> 100 µM	> 100 µM
COc1cc2c(cc1OCCCCOc1cc3c(cc1OC)C(=O)N1CCC[C@H]1C(=O)N3)N=C[C@@H]1CCCN1C2=O	43.9 µM	3.66 µM	4.59 µM	18.1 µM	25.7 µM	30.8 µM	22.2 µM	29.3 µM	44.3 µM	19.4 µM	22.5 µM	25.4 µM	27.6 µM	24.6 µM	28 µM	14.8 µM	8.7 µM	26.3 µM	19.6 µM	27.8 µM
COc1ccc2cc(-c3nc(N)nc(N4N=C(C)CC4(C)C)n3)c(=N)oc2c1	35.6 µM	36.6 µM	32.1 µM	44.2 µM	28.5 µM	31.8 µM	30.6 µM	95.7 µM	32.6 µM	39.2 µM	32.7 µM	31.8 µM	67.2 µM	32 µM	55.1 µM	30.1 µM	44.8 µM	32.6 µM	33.5 µM	49.8 µM
O=C1C=C(OCCCCl)C(=O)c2c(O)ccc(O)c21	3.1 µM	6.01 µM	3.52 µM	0.438 µM	1.38 µM	2.08 µM	3.37 µM	0.358 µM	0.863 µM	3.98 µM	0.322 µM	0.479 µM	3.19 µM	1.58 µM	2.41 µM	0.306 µM	3.39 µM	3.37 µM	0.349 µM	7.59 µM
